According to patent publication US12673961B2 (Agios Pharmaceuticals, Inc., priority 2022, dated 2026):

molecular target: T1, human PAH with the R408W mutation (Homo sapiens, UniProt P00439, R408W); assay: Cell Based Phenylalanine Flux Assay; set-up: scale not given here; settings: A375 cells expressing R408W PAH; 24 hrs with compound, then 20 μM sepiapterin and 800 μM 13C9,15N-Phenylalanine for 4 hours; 13C-Tyrosine in media by LC-MS; average where tested multiple times;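 note: Ten-point dose curve from 2-fold serial dilutions, run in duplicate at 0.5% DMSO final, tracer step used 20 µM sepiapterin and 800 µM labeled phenylalanine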
T1 construct: expressed in transfected cells
T1 sequence (P00439 1-452 R408W): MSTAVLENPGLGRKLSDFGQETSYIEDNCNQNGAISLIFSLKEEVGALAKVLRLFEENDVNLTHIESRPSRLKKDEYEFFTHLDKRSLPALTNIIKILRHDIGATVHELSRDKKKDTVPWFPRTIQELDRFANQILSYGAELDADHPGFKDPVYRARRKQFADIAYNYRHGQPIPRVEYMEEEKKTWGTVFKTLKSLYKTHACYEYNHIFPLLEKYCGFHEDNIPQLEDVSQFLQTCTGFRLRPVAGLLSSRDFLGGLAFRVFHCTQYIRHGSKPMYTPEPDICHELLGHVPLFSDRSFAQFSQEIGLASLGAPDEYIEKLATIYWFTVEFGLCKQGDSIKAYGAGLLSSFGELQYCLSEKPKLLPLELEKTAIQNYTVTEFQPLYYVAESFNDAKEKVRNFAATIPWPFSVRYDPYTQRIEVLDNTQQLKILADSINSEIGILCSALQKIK

Row | SMILES | AC50
1 | Cc1cccn2nc(C3c4nc[nH]c4CCN3C(=O)c3ccnn3C(F)(F)F)cc12 (centres unmarked) | E, E
2 | Cc1cccn2nc(C3c4nc[nH]c4CCN3C(=O)c3ccnn3C(F)(F)F)cc12 (single isomer, unassigned) | E, E
3 | COc1cccn2nc([C@@H]3c4nc[nH]c4CCN3C(=O)c3ccnn3C3CC3)cc12 (single isomer, unassigned) | E, E
4 | Cn1cnc(-c2nc(C(F)F)c(C(=O)N3CCc4[nH]cnc4[C@H]3c3cc4ccccn4n3)o2)c1 (single isomer, unassigned) | E, E

Now from value to compound:

Row | AC50 | SMILES
5 | E, E | COc1cccn2nc(C3c4nc[nH]c4CCN3C(=O)c3ccnn3C3CC3)cc12 (centres unmarked)
6 | E, E | Cn1cnc(-c2nc(C(F)F)c(C(=O)N3CCc4[nH]cnc4C3c3cc4ccccn4n3)o2)c1 (centres unmarked)
7 | E, E | Cc1cccn2nc(C3c4nc[nH]c4CCN3C(=O)c3ocnc3C(F)(F)F)cc12 (centres unmarked) [listing 1 of 2 here]
8 | E, E | Cc1cccn2nc(C3c4nc[nH]c4CCN3C(=O)c3ccnn3C)cc12 (centres unmarked)
9 | E, E | CC(C)c1cccn2nc(C3c4nc[nH]c4CCN3c3ncccn3)cc12 (centres unmarked)
10 | E, E | Cc1ccn2nc(C3c4nc[nH]c4CCN3C(=O)c3oc(C(C)(C)O)nc3C(F)F)cc2c1 (centres unmarked)
11 | E, E | CC(C)(O)c1nc(C(F)(F)F)c(C(=O)N2CCc3[nH]cnc3C2c2cc3c(Cl)cccn3n2)o1 (centres unmarked)
12 | E, E | Cc1cccn2nc(C3c4nc[nH]c4CCN3C(=O)c3oc(C(C)(C)O)nc3C(F)(F)F)cc12 (centres unmarked)
13 | E, E | FC(F)c1cccn2nc(C3c4nc[nH]c4CCN3c3nnc(-c4ccncn4)o3)cc12 (centres unmarked)
14 | E. E | O=C(c1ocnc1C(F)(F)F)N1CCc2[nH]cnc2C1c1cc2c(Cl)cccn2n1 (centres unmarked)
15 | E, E | COc1cccn2nc(C3c4nc[nH]c4CCN3C(=O)c3ccnn3C)cc12 (centres unmarked)
16 | E, E | COc1cccn2nc(C3c4nc[nH]c4CCN3C(=O)c3ncnn3C)cc12 (centres unmarked)
17 | E, E | COc1cccn2nc(C3c4nc[nH]c4CCN3C(=O)c3ccnn3C(C)C)cc12 (centres unmarked)
18 | E, E | COc1cccn2nc(C3c4nc[nH]c4CCN3C(=O)c3ccnn3C(F)(F)F)cc12 (centres unmarked)
19 | E, E | Cc1cccn2nc(C3c4nc[nH]c4CCN3C(=O)c3ccnn3C(C)C)cc12 (centres unmarked)
20 | E, E | Cc1cccn2nc(C3c4nc[nH]c4CCN3C(=O)c3ocnc3C(F)(F)F)cc12 (centres unmarked) [listing 2 of 2 here]
21 | E, E | FC(F)c1cccn2nc([C@H]3c4nc[nH]c4CCN3c3nnc(-c4ccncn4)o3)cc12 (single isomer, unassigned)

same assay, conditions: A375 cells expressing R408W PAH; 24 hrs with compound, then 20 μM sepiapterin and 800 μM 13C9,15N-Phenylalanine for 4 hours; 13C-Tyrosine in media by LC-MS; average where tested multiple times; read-out: AC50

Row | SMILES | AC50 [µM]
22 | Fc1ccc(-c2nnc(N3CCc4[nH]cnc4C3c3cc4ccccn4n3)o2)nc1 (centres unmarked) | > 5
23 | CC1(c2nnc(N3CCc4[nH]cnc4C3c3cc4ccccn4n3)o2)CC1 (centres unmarked) | 1 to 5
24 | O=C(c1nnc(C2CC(F)(F)C2)o1)N1CCc2[nH]cnc2C1c1cc2cccc(F)n2n1 (centres unmarked) | 1 to 5
25 | Nc1cnc(N2CCc3[nH]cnc3C2c2cc3cccc(C(F)F)n3n2)nc1 (centres unmarked) | > 5
26 | c1ccn2nc(C3c4nc[nH]c4CCN3c3nnc(C4CC4)o3)cc2c1 (centres unmarked) | 1 to 5
27 | Cc1ccn2nc(C3c4nc[nH]c4CCN3C(=O)c3nnc(-c4cnn(C)c4)o3)cc2c1 (single isomer, unassigned) | > 5
28 | Cn1cncc1-c1nnc(C(=O)N2CCc3[nH]cnc3[C@@H]2c2cc3cccc(C(F)F)n3n2)o1 (single isomer, unassigned) | > 5
29 | Fc1cccc2cc([C@H]3c4nc[nH]c4CCN3c3ncccn3)nn12 (single isomer, unassigned) | > 5
30 | Cc1nnc(C(=O)N2CCc3[nH]cnc3[C@@H]2c2cc3cccc(C)n3n2)o1 (single isomer, unassigned) | > 5
31 | Cn1nc(C(F)F)cc1C(=O)N1CCc2[nH]cnc2[C@@H]1c1cc2ccccn2n1 (single isomer, unassigned) | > 5
32 | Cn1nc(C(C)(C)C)cc1C(=O)N1CCc2[nH]cnc2[C@@H]1c1cc2c(F)cccn2n1 (single isomer, unassigned) | > 5
33 | Cn1cncc1-c1nnc(C(=O)N2CCc3[nH]cnc3[C@H]2c2cc3cccc(C(F)(F)F)n3n2)o1 (single isomer, unassigned) | 1 to 5
34 | Cn1ccc(-c2nnc(C(=O)N3CCc4[nH]cnc4[C@H]3c3cc4cc(C(F)(F)F)ccn4n3)o2)n1 (single isomer, unassigned) | 1 to 5
35 | O=C(c1nnc(C2CC(F)(F)C2)o1)N1CCc2[nH]cnc2[C@H]1c1cc2cccc(C(F)F)n2n1 (single isomer, unassigned) | 1 to 5
36 | Cc1nnc(C(=O)N2CCc3[nH]cnc3[C@H]2c2cc3c(OC(F)F)cccn3n2)o1 (single isomer, unassigned) | 1 to 5
37 | COc1cccn2nc([C@@H]3c4nc[nH]c4CCN3C(=O)c3nnc(-c4cnn(C(F)(F)F)c4)o3)cc12 (single isomer, unassigned) | 1 to 5
38 | Cc1nnc(N2CCc3[nH]cnc3[C@H]2c2cc3cccc(C(F)F)n3n2)o1 (single isomer, unassigned) | > 5

Row | SMILES | AC50 [µM]
39 | Fc1cccc2cc([C@@H]3c4nc[nH]c4CCN3c3ncccn3)nn12 (single isomer, unassigned) | 1 to 5
40 | Nc1cnc(N2CCc3[nH]cnc3[C@H]2c2cc3ccccn3n2)nc1 (single isomer, unassigned) | > 5
41 | Cc1cccc2cc([C@@H]3c4nc[nH]c4CCN3C(=O)c3nnc(C(C)(C)O)o3)nn12 (single isomer, unassigned) | 1 to 5
42 | Cc1c([C@@H]2c3nc[nH]c3CCN2C(=O)c2nnc(C(C)(C)O)o2)nn2ccccc12 (single isomer, unassigned) | > 5
43 | O=C(c1nnc(-c2ncccn2)o1)N1CCc2[nH]cnc2[C@H]1c1cc2c(OC(F)F)cccn2n1 (single isomer, unassigned) | 1 to 5
44 | COc1cccn2nc([C@@H]3c4nc[nH]c4CCN3c3nnc(-c4ccccn4)o3)cc12 (single isomer, unassigned) | 1 to 5
45 | CC(C)(O)c1noc(C(=O)N2CCc3[nH]cnc3[C@H]2c2cc3ccccn3n2)n1 (single isomer, unassigned) | > 5
46 | c1ccn2nc(C3c4nc[nH]c4CCN3c3nnc(C4CCC4)o3)cc2c1 (single isomer, unassigned) | 1 to 5
47 | FC(F)(F)c1cccc2cc([C@@H]3c4nc[nH]c4CCN3c3nnc(C4CC4)o3)nn12 (single isomer, unassigned) | 1 to 5
48 | Cc1nnc(C(=O)N2CCc3[nH]cnc3C2c2nn3ccccc3c2C)o1 (single isomer, unassigned) | 1 to 5
49 | Cn1nc(C(F)F)nc1C(=O)N1CCc2[nH]cnc2[C@H]1c1cc2ccc(F)cn2n1 (single isomer, unassigned) | 1 to 5
50 | Cn1nc(C2CC2)nc1C(=O)N1CCc2[nH]cnc2C1c1cc2c(F)cccn2n1 (single isomer, unassigned) | 1 to 5
51 | O=C(c1nnc(N2CCOCC2)o1)N1CCc2[nH]cnc2[C@H]1c1cc2ccccn2n1 (single isomer, unassigned) | 1 to 5
52 | COCc1ccc2c(C(=O)N3CCc4[nH]cnc4[C@H]3c3cc4ccccn4n3)cnn2c1 (single isomer, unassigned) | 1 to 5
53 | CN(C)c1nnc(C(=O)N2CCc3[nH]cnc3[C@H]2c2cc3ccccn3n2)o1 (single isomer, unassigned) | 1 to 5
54 | Cc1nc([C@@H](C)O)oc1C(=O)N1CCc2[nH]cnc2[C@H]1c1cc2cccc(C)n2n1 (single isomer, unassigned) | 1 to 5

Second part, the compound after the results:

Row | AC50 [µM] | SMILES
55 | > 5 | COc1cccn2nc(C3c4nc[nH]c4CCN3C(=O)c3cc(C(C)(C)C)nn3C)cc12 (centres unmarked)
56 | 1 to 5 | N#Cc1ncoc1C(=O)N1CCc2[nH]cnc2C1c1nn2ccccc2c1Br (centres unmarked)
57 | > 5 | Cn1cc(N2CCc3[nH]cnc3C2c2cc3ccccn3n2)cn1 (centres unmarked)
58 | 1 to 5 | O=C(c1nnc(-c2cc[nH]n2)o1)N1CCc2[nH]cnc2C1c1cc2ccccn2n1 (centres unmarked)
59 | 1 to 5 | CC(C)(F)c1nnc(C(=O)N2CCc3[nH]cnc3C2c2cc3cc(C(F)(F)F)ccn3n2)o1 (centres unmarked)
60 | 1 to 5 | O=C(c1nnc(-c2cn[nH]c2)o1)N1CCc2[nH]cnc2C1c1cc2c(F)cccn2n1 (centres unmarked)
61 | 1 to 5 | Cc1nnc(C(=O)N2CCc3[nH]cnc3C2c2cc3ccc(F)cn3n2)o1 (centres unmarked)
62 | 1 to 5 | Cc1nnc(C(=O)N2CCc3[nH]cnc3C2c2cc3cccc(C(F)F)n3n2)o1 (centres unmarked)
63 | 1 to 5 | Cn1cnc(-c2nnc(C(=O)N3CCc4[nH]cnc4C3c3cc4cccc(C(F)F)n4n3)o2)c1 (centres unmarked)
64 | > 5 | O=C(c1nnc(-c2ncccn2)o1)N1CCc2[nH]cnc2C1c1cc2c(C3CC3)cccn2n1 (centres unmarked)
65 | > 5 | COc1cccn2nc(C3c4nc[nH]c4CCN3C(=O)c3nnc(C(C)(C)O)o3)cc12 (centres unmarked)
66 | 1 to 5 | COCc1ncc(C(=O)N2CCc3[nH]cnc3C2c2cc3ccccn3n2)o1 (centres unmarked)
67 | 1 to 5 | COCc1ccc2c(C(=O)N3CCc4[nH]cnc4C3c3cc4cccc(F)n4n3)cnn2c1 (centres unmarked)
68 | 1 to 5 | O=C(Cc1cnn2ccccc12)N1CCc2[nH]cnc2[C@H]1c1cc2ccccn2n1 (single isomer, unassigned)
69 | 1 to 5 | Cc1cccn2nc([C@@H]3c4nc[nH]c4CCN3c3nnc(-c4cnn(C)c4)o3)cc12 (single isomer, unassigned)
70 | 1 to 5 | Cn1cc(-c2nnc(N3CCc4[nH]cnc4[C@H]3c3cc4c(C(F)(F)F)cccn4n3)o2)cn1 (single isomer, unassigned)
71 | 1 to 5 | Cc1cccn2nc([C@@H]3c4nc[nH]c4CCN3c3nnc(C(=O)N(C)C)o3)cc12 (single isomer, unassigned)
